# Assay results: patent US7291609B2, “Specific glucocorticosteroid compound having anti-inflammatory activity” (Glaxo Group Limited, priority 2003, dated 2007)
# How the values were obtained:
# Type in all cases: cell-based
# [1] = target: T1, Progesterone Receptor (Homo sapiens, UniProt P06401); assay: Assay for progesterone receptor activity (alkaline phosphatase in T47D cells); details: T47D human breast cancer cells, 24 hours at 37° C.; read-out: EC50 (alkaline phosphatase upregulation)
# T1 construct: T47D cells were seeded into 96 well plates; endogenous in cells; host or cells: T47D human breast cancer cells
# T1 sequence (P06401 1-933): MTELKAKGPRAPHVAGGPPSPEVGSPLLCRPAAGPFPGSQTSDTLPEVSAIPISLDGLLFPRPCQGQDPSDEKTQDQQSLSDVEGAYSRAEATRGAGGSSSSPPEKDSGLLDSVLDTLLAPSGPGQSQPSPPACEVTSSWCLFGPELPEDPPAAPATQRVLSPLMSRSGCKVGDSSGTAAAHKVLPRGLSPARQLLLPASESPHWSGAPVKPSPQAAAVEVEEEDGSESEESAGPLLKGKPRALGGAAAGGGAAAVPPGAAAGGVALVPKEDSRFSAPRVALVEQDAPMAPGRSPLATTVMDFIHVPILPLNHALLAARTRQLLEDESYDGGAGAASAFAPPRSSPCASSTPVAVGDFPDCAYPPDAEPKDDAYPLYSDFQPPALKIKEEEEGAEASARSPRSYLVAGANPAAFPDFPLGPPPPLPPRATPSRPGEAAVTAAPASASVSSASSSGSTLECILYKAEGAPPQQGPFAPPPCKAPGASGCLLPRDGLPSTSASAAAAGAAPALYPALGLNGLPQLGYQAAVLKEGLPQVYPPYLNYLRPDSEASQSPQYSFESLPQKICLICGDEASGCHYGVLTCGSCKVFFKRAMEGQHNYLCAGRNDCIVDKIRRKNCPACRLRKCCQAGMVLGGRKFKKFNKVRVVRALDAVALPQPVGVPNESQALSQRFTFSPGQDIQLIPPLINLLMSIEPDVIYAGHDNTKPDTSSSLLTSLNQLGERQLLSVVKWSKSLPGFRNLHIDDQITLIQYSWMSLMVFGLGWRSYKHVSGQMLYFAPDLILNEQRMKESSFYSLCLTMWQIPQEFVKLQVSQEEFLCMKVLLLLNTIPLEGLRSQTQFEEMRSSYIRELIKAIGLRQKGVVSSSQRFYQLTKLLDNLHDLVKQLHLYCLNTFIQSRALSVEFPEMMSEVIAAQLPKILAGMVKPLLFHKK
# [2] = target: T2, glucocorticoid receptor (Homo sapiens, UniProt P04150); assay: NF-κB transrepression reporter assay (ELAM promoter-sPAP) in A549 cells; details: compound 1 hour at 37° C., then TNF 10 ng/ml for 16 hours, read-out: EC50 (transrepressive activity)
# T2 construct: A549 cells stably transfected with a reporter gene; endogenous in cells; host or cells: A549 cells (stably transfected with a reporter gene only)
# T2 sequence (P04150 1-777): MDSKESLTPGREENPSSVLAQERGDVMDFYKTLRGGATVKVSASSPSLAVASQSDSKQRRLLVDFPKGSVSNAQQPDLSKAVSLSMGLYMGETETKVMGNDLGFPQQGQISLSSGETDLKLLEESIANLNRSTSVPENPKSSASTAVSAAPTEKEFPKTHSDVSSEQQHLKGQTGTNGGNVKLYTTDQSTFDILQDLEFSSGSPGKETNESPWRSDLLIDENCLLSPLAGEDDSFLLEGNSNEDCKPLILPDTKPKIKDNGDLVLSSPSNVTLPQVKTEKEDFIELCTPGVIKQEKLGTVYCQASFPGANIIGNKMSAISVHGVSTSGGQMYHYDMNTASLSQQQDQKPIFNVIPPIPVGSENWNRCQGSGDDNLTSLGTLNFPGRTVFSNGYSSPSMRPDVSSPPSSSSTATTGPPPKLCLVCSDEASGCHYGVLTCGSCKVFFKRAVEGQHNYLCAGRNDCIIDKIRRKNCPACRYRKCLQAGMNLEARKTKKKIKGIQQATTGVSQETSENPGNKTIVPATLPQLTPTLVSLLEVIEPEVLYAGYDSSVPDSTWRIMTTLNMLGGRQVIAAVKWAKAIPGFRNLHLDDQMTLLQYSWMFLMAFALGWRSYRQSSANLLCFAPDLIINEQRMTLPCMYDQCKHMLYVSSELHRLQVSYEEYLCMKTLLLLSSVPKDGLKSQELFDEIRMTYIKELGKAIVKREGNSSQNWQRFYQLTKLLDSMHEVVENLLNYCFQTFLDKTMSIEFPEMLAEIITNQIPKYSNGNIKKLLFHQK
# Experimental: The functional assay based on that described by K. P. Ray et al., Biochem J. (1997), 328, 707-715 provides a measure of transrepressive activity of a glucocorticoid agonist. A549 cells stably transfected with a reporter gene containing the NF-κB responsive elements from the ELAM gene promoter coupled to sPAP (secreted alkaline phosphatase) are treated with test compounds at appropriate doses for 1 hour at 37° C. The cells are then stimulated with tumour necrosis factor (TNF, 10 ng/ml) for 16 hours, at which time the amount of alkaline phosphatase produced is measured by a standard colourimetric assay. Dose response curves are constructed from which EC50 values may be estimated.
# [3] = target: T2, glucocorticoid receptor; assay: MMTV-LTR renilla luciferase transactivation reporter assay in A549 cells; details: 6 hour at 37° C., read-out: maximal response relative to Dexamethasone (100%)
# Experimental: The functional assay based on that described by R. J. H. Austin et al., Eur Resp J. (2002), 20, 1386-1392 measures the ability of compounds to directly transactivate gene expression. A549 cells stably transfected with a reporter gene containing the glucocorticoid responsive region of the mouse mammary tumour virus long terminal repeat (MMTV-LTR) coupled to renilla luciferase were treated with test compounds at appropriate doses for 6 hour at 37° C. The amount of luciferase activity present within the cells is then determined by measuring the light emitted following incubation with a suitable substrate.
smiles,measurement,setting,value
"C[C@@H]1C[C@H]2[C@@H]3C[C@H](F)C4=CC(=O)C=C[C@]4(C)[C@@]3(F)[C@@H](O)C[C@]2(C)[C@@]1(OC(=O)C1C(C)(C)C1(C)C)C(=O)OCC#N [Example 1, 6α,9α-Difluoro-11β-hydroxy-16α-methyl-3-oxo-17α-(2,2,3,3-tetramethycyclopropylcarbonyl)oxy-androsta-1,4-diene-17β-carboxylic acid cyanomethyl ester]",EC50,[1],> 100 nM
same,EC50,[2],< 0.1 nM
same,Emax,[3],< 5%
